The values that follow come from US20150190369A1, “QUERCETIN-3-GLUCOSIDE AND USES THEREOF” (priority 2012, published 2015).

For one experiment, the system named is LDLR mRNA. Description: Quantitative RT-PCR for LDLR mRNA in Huh7 cells. In kind it is cell-based, human. To be noted: Huh7, 24 h, 10% LPDS, 0 to 10 μM Q3G; maximum at 2 μM, relative to no Q3G. The procedure:
At passage, Huh7 cells were routinely seeded at sub-confluence (˜10^6 cells/10-cm dish) in Dulbecco's modified Eagle's medium (DMEM) containing 10% fetal bovine serum (FBS) or LPDS (for experiments) and 50 μg/ml gentamycin. They were incubated overnight at 37° C., in a humidified 5% CO2-95% air atmosphere. Cells were treated or not with Q3G at defined concentrations and for defined lengths of time. Media were collected and centrifuged at 200 g for 5 min to sediment suspended cells; supernatants were collected and supplemented with 0.33 volumes of a 3×-concentrated PIC. Cell monolayers were rinsed with ice-cold phosphate-buffered saline (PBS); they were overlaid with […] the RIPA lysis buffer (50 mM Tris-HCl, pH 8, 150 mM NaCl, 1% NP-40, 0.5% Na-deoxycholate and 0.1% SDS) supplemented with 1× PIC. After 20 min in an ice bath, the lysates were centrifuged at 14,000 g and 4° C. for 20 min, and supernatants were collected. Conditioned media and lysates were stored at −20° C. until analysis. […]
(§1) Standard curves were established using varying amounts of purified and quantified cDNA amplicons of each mRNA. […]
Huh7 cells, hepatocyte derived cellular carcinoma cells, were incubated for 24 h in medium containing 10% lipoprotein-depleted serum (LPDS) and 0 to 10 μM Q3G. The level of LDLR mRNA was measured by quantitative real-time RT-PCR; that of the LDLR protein by semi-quantitative immunoblotting. […]

The test system of experiment [1] is PCSK9 mRNA. Description: Quantitative RT-PCR for PCSK9 mRNA in Huh7 cells. In kind it is cell-based, human. As to conditions: Huh7, 24 h, highest Q3G concentration tested (0 to 10 μM). The procedure:
At passage, Huh7 cells were routinely seeded at sub-confluence (˜10^6 cells/10-cm dish) in Dulbecco's modified Eagle's medium (DMEM) containing 10% fetal bovine serum (FBS) or LPDS (for experiments) and 50 μg/ml gentamycin. They were incubated overnight at 37° C., in a humidified 5% CO2-95% air atmosphere. Cells were treated or not with Q3G at defined concentrations and for defined lengths of time. Media were collected and centrifuged at 200 g for 5 min to sediment suspended cells; supernatants were collected and supplemented with 0.33 volumes of a 3×-concentrated PIC. Cell monolayers were rinsed with ice-cold phosphate-buffered saline (PBS); they were overlaid with […] the RIPA lysis buffer (50 mM Tris-HCl, pH 8, 150 mM NaCl, 1% NP-40, 0.5% Na-deoxycholate and 0.1% SDS) supplemented with 1× PIC. After 20 min in an ice bath, the lysates were centrifuged at 14,000 g and 4° C. for 20 min, and supernatants were collected. Conditioned media and lysates were stored at −20° C. until analysis.
Total RNA was extracted using the Qiagen RNeasy extraction kit. It was reverse transcribed into cDNA using random hexameric primers and the Superscript II RNase H-Reverse Transcriptase. […]
as §1

Another experiment relates to PCSK9. The experiment can be described thus: ELISA for secreted PCSK9 in conditioned media of Huh7 cells. In kind it is cell-based, human. To be noted: Huh7, 24 h.
A further experiment has as its system SREBP-2 mRNA. The experiment can be described thus: Quantitative RT-PCR for proSREBP-2 mRNA in Huh7 cells. The class given is cell-based, human. To be noted: Huh7, 24 h, 5 μM Q3G. On the procedure:
FIGS. 9A and 9B are graphs illustrating the proSREBPs-2 mRNA and SREBP-2-related protein levels for cells exposed to Q3G. Cells were incubated for 24 h in medium 5 μM Q3G. FIG. 9A illustrates the results for quantitative RT-PCR for proSREBPs-2 mRNA levels. Values are the means of triplicate experiments±SEM. FIG. 9B illustrates the results for semi-quantitative immunoblotting for cellular SREBP-2-related protein. Mat/Prec values, the averages of two experiments, represent density ratios of the 65-kDa SREBP over the 158-kDa proSREBPs after normalization for β-actin.
At passage, Huh7 cells were routinely seeded at sub-confluence (˜10^6 cells/10-cm dish) in Dulbecco's modified Eagle's medium (DMEM) containing 10% fetal bovine serum (FBS) or LPDS (for experiments) and 50 μg/ml gentamycin. They were incubated overnight at 37° C., in a humidified 5% CO2-95% air atmosphere. Cells were treated or not with Q3G at defined concentrations and for defined lengths of time. Media were collected and centrifuged at 200 g for 5 min to sediment suspended cells; supernatants were collected and supplemented with 0.33 volumes of a 3×-concentrated PIC. […]
as §1

Experiment [2] deals with PCSK9 mRNA. The experiment can be described thus: qRT-PCR for PCSK9 mRNA in MIN6 β-cells. Set-up: increase in PCSK9 mRNA: dose or concentration left out as unconfirmed. As to conditions: MIN6, 24 h. In kind it is cell-based, mouse. On the procedure: (§2) Mouse insulinoma MIN6 cells were cultured in a 5% CO2-95% air atmosphere at 37° C. in DMEM medium containing 10% heat-inactivated fetal bovine serum, 1 mM Na-pyruvate, 2 mM L-glutamine, 25 mM D-glucose, and 28 μM β-mercaptoethanol. Q3G at a specific final concentration was supplemented to the culture medium and incubation was conducted for a selected length of time. Media were collected, spun at 600 g to sediment suspended cells, supplemented with 0.5 volumes of 3×RIPA-PIC (1×: 50 mM Tris-HCl, pH 8, 150 mM NaCl, 1% NP-40, 0.5% Na-deoxycholate and 0.1% SDS and PIC). Cells were lysed in 1×RIPA-PIC for immuno-blotting, or in RNA extraction buffer for qRT-PCR.
For the mouse studies, the levels of specific mRNAs were quantified in a PCR-based fluorogenic assay using the Taqman technology (Holland et al., 1991). Briefly, total RNA was extracted using the RNeasy extraction kit and reverse-transcribed into cDNA using random hexameric primers and the Superscript II RNase H-Reverse Transcriptase. The cDNA was used as a template to produce PCR amplicons using FastStart TaqMan ProbeMaster-Rox master mix, primer pairs and the appropriate fluorescent probes) in the Stratagene Mx3005P thermocycler. Standard curves were established using varying amounts of pre-quantified amplicons of each transcript. The level of mRNA for the TATA-box binding protein (TBP) was used for normalization.
(§3) MIN6 β-cells were incubated for 24 h in the presence of different concentrations of Q3G. Total RNA was extracted and analyzed by qRT-PCR for the levels of mRNA for PCSK9, LDLR, ABCA1 and ABCG1.

The next experiment has as its system ABCA1 mRNA. The experiment can be described thus: qRT-PCR for ABCA1 mRNA in MIN6 β-cells. The class given is cell-based, mouse. As to conditions: MIN6, 24 h. On the procedure: as §2
(§4) For the mouse studies, the levels of specific mRNAs were quantified in a PCR-based fluorogenic assay using the Taqman technology (Holland et al., 1991). Briefly, total RNA was extracted using the RNeasy extraction kit and reverse-transcribed into cDNA using random hexameric primers and the Superscript II RNase H-Reverse Transcriptase. […] Standard curves were established using varying amounts of pre-quantified amplicons of each transcript. […]
as §3

In the next experiment the test system is ABCG1 mRNA. The experiment can be described thus: qRT-PCR for ABCG1 mRNA in MIN6 β-cells. To be noted: MIN6, 24 h. In kind it is cell-based, mouse. On the procedure:
as §2, §4, §3
Background: Quantitative PCR measures a nucleic acid by following its amplification.

For the compound `O=c1c(O[C@@H]2O[C@H](CO)[C@@H](O)[C@H](O)[C@H]2O)c(-c2ccc(O)c(O)c2)oc2cc(O)cc(O)c12` [Q3G, quercetin-3-O-β-D-glucoside], in the experiment on LDLR mRNA, the “increase of intracellular content of LDLR mRNA (maximum)” value worked out at 2 ×. Moreover, the “decrease of PCSK9 mRNA levels” value with PCSK9 mRNA [1] is “one-third”. For the same compound, the “level of PCSK9 in spent media” value in the experiment on PCSK9 (co-treatment 5 μM Q3G with simvastatin 0.2 and 1 μM, versus simvastatin alone) is given as “reducing”. In addition, the “decrease of PCSK9 in conditioned media” value in the experiment with PCSK9 (highest Q3G concentration tested (0 to 10 μM)) is on record as 35%. The “effect on level of SREBP-2 mRNA” value with SREBP-2 mRNA is “no effect”. Moreover, the “effect on PCSK9 mRNA levels” value with PCSK9 mRNA [2] (Q3G 8 mM and above) is “increased”; in the experiment on PCSK9 mRNA [2] (Q3G up to 4 mM), “does not affect”. In addition, the “increase in PCSK9 mRNA” value with PCSK9 mRNA [2] (maximum Q3G concentration used) is recorded as 2.5 fold. Further, the “effect on ABCA1 mRNA levels” value in the experiment on ABCA1 mRNA (Q3G 8 mM and above) is on record as “reducing”. Moreover, the “increase of ABCA1 mRNA levels” value in the experiment on ABCA1 mRNA (Q3G up to 4 mM) is given as “about 50%”. Besides, the “effect on ABCG1 mRNA levels” value in the experiment with ABCG1 mRNA (Q3G 8 mM and above) is “reducing”. For the same compound, in the experiment with ABCG1 mRNA (Q3G up to 4 mM), the “increase of ABCG1 mRNA levels” value is listed as “about 50%”.
